Data set [1] is described as follows: Permeability across basolateral to apical side in human Caco-2 cells. Particulars: read-out: permeability; call rule not given here. Format: ADME, cell-based.
A short description of data set [2]: AUC in cynomolgus monkey at 1 mg/kg, po. Format: ADME, organism-based, Macaca fascicularis. Set-up: dose 1 mg/kg, route po. Particulars: in vivo.
For data set [3], the target named is T1, Steroid 17-alpha-hydroxylase/17,20 lyase (Macaca fascicularis, UniProt Q2XVA1).
T1 sequence (Q2XVA1 whole entry): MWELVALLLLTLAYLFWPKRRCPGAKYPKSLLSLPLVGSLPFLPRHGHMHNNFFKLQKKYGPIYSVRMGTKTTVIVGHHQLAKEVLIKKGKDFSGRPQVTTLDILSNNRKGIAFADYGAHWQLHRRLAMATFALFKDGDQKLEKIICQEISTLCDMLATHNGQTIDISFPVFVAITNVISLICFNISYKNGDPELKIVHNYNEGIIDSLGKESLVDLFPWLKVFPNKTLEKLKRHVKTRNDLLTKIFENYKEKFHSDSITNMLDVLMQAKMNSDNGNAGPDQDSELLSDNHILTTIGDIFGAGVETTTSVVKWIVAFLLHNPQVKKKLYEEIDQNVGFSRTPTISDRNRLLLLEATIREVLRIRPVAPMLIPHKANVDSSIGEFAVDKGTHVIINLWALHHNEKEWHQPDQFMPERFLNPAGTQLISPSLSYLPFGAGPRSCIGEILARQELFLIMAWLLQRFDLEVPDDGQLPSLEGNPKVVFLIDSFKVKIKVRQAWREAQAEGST
The data set can be described thus: In vivo inhibition of CYP17A1 in cynomolgus monkey assessed as decrease in testosterone level in blood at 1 mg/kg, po measured at 8 hrs. Format: functional, organism-based.

Data set [4] in a line: Inhibition of cynomolgus monkey CYP21A2. Format: ADME, Macaca fascicularis.
The target in data set [5] is Cytochrome P450 3A4 (Homo sapiens, UniProt P08684). The data set can be described thus: Induction of recombinant human CYP3A4. Format: ADME. Particulars: recombinant enzyme.
Sequence of Cytochrome P450 3A4 (P08684 whole entry): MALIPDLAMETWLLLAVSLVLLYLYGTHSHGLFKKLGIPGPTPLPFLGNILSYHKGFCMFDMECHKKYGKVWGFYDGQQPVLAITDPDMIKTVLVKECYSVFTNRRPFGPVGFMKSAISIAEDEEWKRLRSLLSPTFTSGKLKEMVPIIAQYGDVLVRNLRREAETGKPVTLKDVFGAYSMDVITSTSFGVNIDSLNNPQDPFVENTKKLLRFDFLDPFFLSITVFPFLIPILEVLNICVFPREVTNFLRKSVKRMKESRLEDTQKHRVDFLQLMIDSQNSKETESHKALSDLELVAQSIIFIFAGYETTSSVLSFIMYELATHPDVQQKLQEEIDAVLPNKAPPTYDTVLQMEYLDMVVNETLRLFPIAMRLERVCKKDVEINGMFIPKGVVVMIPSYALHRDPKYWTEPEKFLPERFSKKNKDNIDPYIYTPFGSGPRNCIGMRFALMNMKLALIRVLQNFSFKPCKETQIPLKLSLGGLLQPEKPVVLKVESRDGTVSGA
Data set [6] deals with T1, Steroid 17-alpha-hydroxylase/17,20 lyase. As to the kind of experiment: In vivo inhibition of CYP17A1 in cynomolgus monkey assessed as increase in hydroxyprogesterone level in blood at 1 mg/kg, po measured at 4 hrs. The class given is functional, organism-based.
The nature of data set [7]: Metabolic stability in cynomolgus monkey liver microsome assessed as half-life. The class given is ADME, Macaca fascicularis. Particulars: liver microsomes.
In data set [8] the target is T1, Steroid 17-alpha-hydroxylase/17,20 lyase. The data set can be described thus: In vivo inhibition of CYP17A1 in cynomolgus monkey assessed as fold increase in hydroxyprogesterone level in blood at 1 mg/kg, po measured upto 24 hrs. Format: functional, organism-based.
The nature of data set [9]: Metabolic stability in human liver microsomes assessed as parent compound remaining relative to control. The class given is ADME, Microsome.
In data set [10] the target is T2, Cytochrome P450 11B1, mitochondrial (Homo sapiens, UniProt P15538).
T2 sequence (P15538 whole entry): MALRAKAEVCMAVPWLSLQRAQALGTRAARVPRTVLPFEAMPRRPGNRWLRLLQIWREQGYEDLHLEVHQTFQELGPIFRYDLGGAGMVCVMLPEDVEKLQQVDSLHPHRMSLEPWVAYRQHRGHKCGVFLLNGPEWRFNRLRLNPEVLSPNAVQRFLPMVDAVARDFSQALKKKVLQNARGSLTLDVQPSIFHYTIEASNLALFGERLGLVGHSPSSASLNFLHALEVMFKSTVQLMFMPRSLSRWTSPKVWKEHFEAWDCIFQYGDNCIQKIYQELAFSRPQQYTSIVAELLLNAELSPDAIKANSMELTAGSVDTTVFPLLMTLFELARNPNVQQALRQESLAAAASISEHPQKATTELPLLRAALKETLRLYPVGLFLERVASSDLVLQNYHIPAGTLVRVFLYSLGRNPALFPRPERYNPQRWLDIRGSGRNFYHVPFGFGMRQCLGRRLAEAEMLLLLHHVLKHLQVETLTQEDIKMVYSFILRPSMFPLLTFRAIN
As to the kind of experiment: Inhibition of human CYP11B1. The class given is ADME.

The target in data set [11] is Cytochrome P450 2C9 (Homo sapiens, UniProt P11712). As to the kind of experiment: Inhibition of recombinant human CYP2C9. Format: ADME.
Sequence of Cytochrome P450 2C9 (P11712 whole entry): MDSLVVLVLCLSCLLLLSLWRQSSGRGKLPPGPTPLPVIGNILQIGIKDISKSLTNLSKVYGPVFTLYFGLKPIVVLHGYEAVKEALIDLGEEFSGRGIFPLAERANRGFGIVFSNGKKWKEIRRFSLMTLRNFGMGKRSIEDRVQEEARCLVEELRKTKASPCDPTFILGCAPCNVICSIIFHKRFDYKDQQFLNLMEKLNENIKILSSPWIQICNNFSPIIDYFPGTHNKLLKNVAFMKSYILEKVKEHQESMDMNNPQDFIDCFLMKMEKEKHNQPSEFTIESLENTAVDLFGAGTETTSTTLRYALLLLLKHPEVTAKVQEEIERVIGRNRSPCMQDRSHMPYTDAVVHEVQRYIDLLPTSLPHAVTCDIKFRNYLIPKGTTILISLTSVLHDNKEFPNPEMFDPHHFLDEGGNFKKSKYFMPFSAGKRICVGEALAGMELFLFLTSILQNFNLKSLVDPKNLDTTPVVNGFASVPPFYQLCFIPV
Data set [12] addresses T1, Steroid 17-alpha-hydroxylase/17,20 lyase. As to the kind of experiment: Inhibition of cynomolgus monkey CYP17A1 lyase activity. Format: ADME.
The target is the same in data set [13]. As to the kind of experiment: Inhibition of cynomolgus monkey CYP17A1 hydroxylase activity. Format: ADME.
Data set [14] in a line: Metabolic stability in mouse liver microsomes assessed as parent compound remaining. Format: ADME, Microsome.
Data set [15] concerns the target T3, Cytochrome P450 1A2 (Homo sapiens, UniProt P05177).
T3 sequence (P05177 whole entry): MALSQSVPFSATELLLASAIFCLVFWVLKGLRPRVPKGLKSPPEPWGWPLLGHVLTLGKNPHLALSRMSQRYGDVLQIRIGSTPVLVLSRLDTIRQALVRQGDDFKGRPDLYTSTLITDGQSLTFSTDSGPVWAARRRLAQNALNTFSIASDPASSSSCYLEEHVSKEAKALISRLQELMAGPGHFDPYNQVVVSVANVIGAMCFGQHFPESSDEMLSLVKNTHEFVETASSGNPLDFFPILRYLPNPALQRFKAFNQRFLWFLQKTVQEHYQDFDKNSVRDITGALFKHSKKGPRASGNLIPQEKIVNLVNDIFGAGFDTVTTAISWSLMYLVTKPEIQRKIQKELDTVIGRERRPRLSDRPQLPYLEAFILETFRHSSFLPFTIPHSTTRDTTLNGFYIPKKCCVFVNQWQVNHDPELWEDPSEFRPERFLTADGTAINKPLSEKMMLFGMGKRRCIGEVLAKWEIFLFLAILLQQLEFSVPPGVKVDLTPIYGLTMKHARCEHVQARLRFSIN
The data set can be described thus: Inhibition of recombinant human CYP1A2. The class given is ADME.

The nature of data set [16]: Metabolic stability in dog liver microsome assessed as half-life. The class given is ADME, Canis lupus familiaris. Particulars: liver microsomes.
The target of data set [17] is T4, Steroid 17-alpha-hydroxylase/17,20 lyase (Homo sapiens, UniProt P05093).
T4 sequence (P05093 whole entry): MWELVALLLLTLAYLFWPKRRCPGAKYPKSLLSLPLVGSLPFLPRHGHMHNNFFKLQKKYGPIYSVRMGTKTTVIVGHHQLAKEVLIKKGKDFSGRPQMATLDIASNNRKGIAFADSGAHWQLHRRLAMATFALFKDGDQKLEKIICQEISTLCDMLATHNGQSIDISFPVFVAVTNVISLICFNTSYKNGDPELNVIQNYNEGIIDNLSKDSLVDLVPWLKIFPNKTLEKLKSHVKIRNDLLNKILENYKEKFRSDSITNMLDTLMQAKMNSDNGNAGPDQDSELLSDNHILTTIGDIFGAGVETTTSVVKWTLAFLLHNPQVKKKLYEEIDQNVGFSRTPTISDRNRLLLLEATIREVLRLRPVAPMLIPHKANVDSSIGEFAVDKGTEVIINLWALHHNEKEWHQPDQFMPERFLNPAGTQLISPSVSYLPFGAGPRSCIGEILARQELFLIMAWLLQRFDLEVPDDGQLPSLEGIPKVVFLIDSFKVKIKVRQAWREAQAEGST
The data set can be described thus: Inhibition of human adrenal gland CYP17A1. The class given is ADME, tissue-based.

The nature of data set [18]: Clearance in cynomolgus monkey at 1 mg/kg, iv. Format: ADME, organism-based, Macaca fascicularis. Particulars: in vivo.
In data set [19] the target is T1, Steroid 17-alpha-hydroxylase/17,20 lyase. The data set can be described thus: Inhibition of cynomolgus monkey adrenal gland CYP17A1. Format: ADME, tissue-based.
Data set [20] is described as follows: Metabolic stability in rat liver microsome assessed as half-life. Format: ADME. The settings on record: liver microsomes.
Data set [21] is described as follows: Half-life in cynomolgus monkey at 1 mg/kg, iv. The class given is ADME, organism-based, Macaca fascicularis. Particulars: in vivo.
Data set [22] concerns the target T4, Steroid 17-alpha-hydroxylase/17,20 lyase. The data set can be described thus: Inhibition of human CYP17A1 lyase activity. The class given is ADME.
In data set [23] the target is T1, Steroid 17-alpha-hydroxylase/17,20 lyase. As to the kind of experiment: In vivo inhibition of CYP17A1 in cynomolgus monkey assessed as increase in progesterone level in blood at 1 mg/kg, po measured at 4 hrs. Format: functional, organism-based.

Structures are written as SMILES.

For `Nc1ncncc1-c1ccnc2c1cnn2-c1ccc(F)cc1`, the Papp B→A in data set [1] stood at 21.2 ×10⁻⁶ cm/s. In data set [2], this compound yielded an area under the curve (AUC) of 26 µM·h. Moreover, the Activity in [3] is 43 ng/dL; in [5], “Not Active”; in data set [6], 7.7 ng/dL; in data set [23], 27 ng/dL. Also, the IC50 in data set [4] is over 10000 nM; in data set [10], 2610 nM; in [11], over 40000 nM; in data set [12], 6 nM; in [13] it was 30 nM; in data set [15], over 40000 nM. Moreover, the 50% inhibitory concentration (IC50) in [17] amounted to 30 nM; in data set [19], 2 nM; in data set [22], 8 nM. In addition, the half-life in [7] is over 2 h; in [16], 0.767 h; in data set [20], 1.2 h; in data set [21] it was 16 h. Further, the “fold change (FC)” value in data set [8] is on record as 14. Besides, the Stability is given as 100% in data set [9] and 85% in data set [14]. This compound also registered a clearance in data set [18] of 2.8 mL/min/kg.

The values above are taken from ChEMBL document CHEMBL5223109, “The discovery of BMS-737 as a potent, CYP17 lyase-selective inhibitor for the treatment of castration-resistant prostate cancer” (Bioorg Med Chem Lett, 2022).
